According to the supplement of paper PMC4862054:

What was measured:
HCC1937 [1] = assay: drug sensitivity score (DSS), CellTox Green (DSS (AUC-based score)); higher = stronger drug effect (viability inhibition or cytotoxicity); extreme values may be limits of the assay; details: incubation time: 72 h
In short: (§1)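 Compound was dispensed into 384-well plates at 5 concentrations in 10-fold steps spanning a 10,000-fold range chosen for each compound, and 20 µl of breast cancer cell suspension was added before 72 h of incubation. CellTox Green fluorescence was read at 485/520 nm, followed by CellTiter-Glo luminescence after 10 min at room temperature. Values on each plate were normalised to 0.1 % DMSO and a positive kill control. The drug sensitivity score came from the area under the fitted dose-response curve.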

CAL-85-1 [2] = assay: as above; details: incubation time: 72 h
In short: as §1

MFM-223 = assay: as above; details: incubation time: 72 h
In short: as §1

HCC1599 [3] = assay: as above; details: incubation time: 72 h
In short: as §1

MDA-MB-436 [4] = assay: as above; details: incubation time: 72 h
In short: as §1

MDA-MB-231 [5] = assay: as above; details: incubation time: 72 h
In short: as §1

MCF-10A = assay: as above; details: incubation time: 72 h
In short: as §1

MDA-MB-468 [6] = assay: as above; details: incubation time: 72 h
In short: as §1

MDA-MB-468 [7] = details: 72 h
In short: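 Per-plate normalisation used 0.1 % DMSO and a positive kill control. Breast cancer cell lines (20 µl suspension) were seeded into 384-well plates containing compound at 5 concentrations in 10-fold steps across a compound-specific 10,000-fold range, incubated for 72 h, and read first for CellTox Green fluorescence (485/520 nm), then for CellTiter-Glo luminescence. EC50 was fitted from the dose-response curves and censored at the top concentration.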

HCC1937 [8] = assay: normalised viability (% of control), CellTiter-Blue; higher = more viable cells (about 100 = DMSO control); details: incubation time: 72 h
In short: (§2)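 The reported quantity is normalised viability at a single listed concentration of the series. Compound in 5 µl medium was pre-dispensed into 384-well plates and 20 µl of breast cancer cell suspension was added for 72 h. A 2 h, 37 °C CellTiter-Blue step (2.5 µl) preceded fluorescence reading at 560/590 nm, and plates were normalised to vehicle (100) and a positive kill control (0).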

HDQ-P1 = assay: as above; details: incubation time: 72 h
In short: as §2

Hs578T = assay: as above; details: incubation time: 72 h
In short: as §2

SK-BR-3 = assay: as above; details: incubation time: 72 h
In short: as §2

CAL-148 = assay: as above; details: incubation time: 72 h
In short: as §2

DU-4475 = assay: as above; details: incubation time: 72 h
In short: as §2

MDA-MB-453 = assay: as above; details: incubation time: 72 h
In short: as §2

CAL-85-1 [9] = assay: as above; details: incubation time: 72 h
In short: as §2

HCC1143 = assay: as above; details: incubation time: 72 h
In short: as §2

CAL-120 = assay: as above; details: incubation time: 72 h
In short: as §2

HCC1599 [10] = assay: as above; details: incubation time: 72 h
In short: as §2

MDA-MB-436 [11] = assay: as above; details: incubation time: 72 h
In short: as §2

MDA-MB-231 [12] = assay: as above; details: incubation time: 72 h
In short: as §2

MDA-MB-468 [13] = assay: as above; details: incubation time: 72 h
In short: as §2

Cc1cc(Nc2cc(CN3CCOCC3)c3nc(C)c(Cc4ccc(Cl)cc4F)n3n2)n[nH]1 [Gandotinib] showed a drug sensitivity score (HCC1937 [1]) of 0, a drug sensitivity score (CAL-85-1 [2]) of 3.97 and a drug sensitivity score (MFM-223) of 0. It also gave a drug sensitivity score (HCC1599 [3]) of 0, a drug sensitivity score (MDA-MB-436 [4]) of 0.139 and a drug sensitivity score (MDA-MB-231 [5]) of 0. The drug sensitivity score (MCF-10A) was 0, the drug sensitivity score (MDA-MB-468 [6]) was 3.86 and the “EC50, CellTiter-Glo” value (MDA-MB-468 [7]) was 711 nM.

Compound Nc1cc(C(F)(F)F)c(-c2cc(N3CCOCC3)nc(N3CCOCC3)n2)cn1 [Buparlisib] has a drug sensitivity score (HCC1937 [1]) of 0, a drug sensitivity score (CAL-85-1 [2]) of 0 and a drug sensitivity score (MFM-223) of 0. The drug sensitivity score (HCC1599 [3]) was 0, the drug sensitivity score (MDA-MB-436 [4]) was 0 and the drug sensitivity score (MDA-MB-231 [5]) was 7.38. The drug sensitivity score (MCF-10A) was 0.18, the drug sensitivity score (MDA-MB-468 [6]) was 0 and the “EC50, CellTiter-Glo” value (MDA-MB-468 [7]) was 2710 nM.

CCOC(=O)CCNc1cc(N2CCc3ccccc3CC2)nc(-c2ccccn2)n1 [GSK-J4] was tested, and the drug sensitivity score (HCC1937 [1]) was 7.05, the drug sensitivity score (CAL-85-1 [2]) was 16.5 and the drug sensitivity score (MFM-223) was 8.73. It also gave a drug sensitivity score (HCC1599 [3]) of 2.51, a drug sensitivity score (MDA-MB-436 [4]) of 7.09 and a drug sensitivity score (MDA-MB-231 [5]) of 11.1. The drug sensitivity score (MCF-10A) was 8.52, the drug sensitivity score (MDA-MB-468 [6]) was 12.3 and the “EC50, CellTiter-Glo” value (MDA-MB-468 [7]) was 1890 nM.

With Cc1ccc(NC(=O)c2ccc(CN3CCN(C)CC3)cc2)cc1Nc1nc(-c2cccnc2)cs1 [Masitinib] the drug sensitivity score (HCC1937 [1]) was 0, the drug sensitivity score (CAL-85-1 [2]) was 0 and the drug sensitivity score (MFM-223) was 0. For the same compound, the drug sensitivity score (HCC1599 [3]) was 0.597, the drug sensitivity score (MDA-MB-231 [5]) was 5.53 and the drug sensitivity score (MCF-10A) was 0. For the same compound, the drug sensitivity score (MDA-MB-468 [6]) was 1.39, the “EC50, CellTiter-Glo” value (MDA-MB-468 [7]) was 2290 nM and the normalised viability (HCC1937 [8]; 10 nM) was 97.3%. It also gave a normalised viability (HCC1937 [8]; 1000 nM) of 99.5%, a normalised viability (HCC1937 [8]; 10000 nM) of 84.8% and a normalised viability (HDQ-P1; 3 nM) of 94%. For the same compound, the normalised viability (HDQ-P1; 30 nM) was 92.9%, the normalised viability (HDQ-P1; 100 nM) was 99.5% and the normalised viability (Hs578T; 10 nM) was 113%. For the same compound, the normalised viability (Hs578T; 1000 nM) was 113%, the normalised viability (Hs578T; 10000 nM) was 81.4% and the normalised viability (SK-BR-3; 10 nM) was 99.6%. For the same compound, the normalised viability (SK-BR-3; 1000 nM) was 102%, the normalised viability (SK-BR-3; 10000 nM) was 25.2% and the normalised viability (CAL-148; 3 nM) was 80.9%. For the same compound, the normalised viability (CAL-148; 30 nM) was 82.8%, the normalised viability (CAL-148; 100 nM) was 90.6% and the normalised viability (DU-4475; 3 nM) was 109%. It also gave a normalised viability (DU-4475; 30 nM) of 91.4%, a normalised viability (DU-4475; 100 nM) of 95.5% and a normalised viability (MDA-MB-453; 3 nM) of 112%. It also gave a normalised viability (MDA-MB-453; 30 nM) of 123%, a normalised viability (MDA-MB-453; 100 nM) of 105% and a normalised viability (CAL-85-1 [9]; 3 nM) of 94.8%. For the same compound, the normalised viability (CAL-85-1 [9]; 30 nM) was 75.5%, the normalised viability (CAL-85-1 [9]; 100 nM) was 90.8% and the normalised viability (HCC1143; 10 nM) was 77.4%. The normalised viability (HCC1143; 1000 nM) was 88.7%, the normalised viability (HCC1143; 10000 nM) was 85.5% and the normalised viability (CAL-120; 10 nM) was 82.4%. It also gave a normalised viability (CAL-120; 1000 nM) of 81.8%, a normalised viability (CAL-120; 10000 nM) of 79.3% and a normalised viability (HCC1599 [10]; 10 nM) of 86.2%. The normalised viability (HCC1599 [10]; 1000 nM) was 97.6%, the normalised viability (HCC1599 [10]; 10000 nM) was 95.8% and the normalised viability (MDA-MB-436 [11]; 10 nM) was 97.5%. For the same compound, the normalised viability (MDA-MB-436 [11]; 1000 nM) was 111%, the normalised viability (MDA-MB-436 [11]; 10000 nM) was 72.4% and the normalised viability (MDA-MB-231 [12]; 10 nM) was 96.7%. It also gave a normalised viability (MDA-MB-231 [12]; 1000 nM) of 91.1%, a normalised viability (MDA-MB-231 [12]; 10000 nM) of 50.4% and a normalised viability (MDA-MB-468 [13]; 10 nM) of 93.3%. The normalised viability (MDA-MB-468 [13]; 1000 nM) was 105% and the normalised viability (MDA-MB-468 [13]; 10000 nM) was 53.4%.
